Experimental data: patent US20250255868A1, “HETEROCYCLIC COMPOUND ACTING AS KRAS G12D INHIBITOR” (Hangzhou Innogate Pharma Co., Ltd., priority 2021, published 2025)

Key:
Assay type in all cases: cell-based
[1] = test system: HPAC (human pancreatic cancer cell line, KRAS G12D mutation); test: 3D cell proliferation inhibition (CellTiter-Glo), HPAC; settings: 168 h, 3D culture, seven days, CTG
Method: (§1) Compound activity was indicated by AGS (human gastric cancer cell line, KRAS G12D mutation), GP2D (human colon cancer cell line, KRAS G12D mutation), HPAC (human pancreatic cancer cell line, KRAS G12D mutation) and AsPCl (human pancreatic cancer cell line, KRAS G12D mutation) 3D cell proliferation inhibition. The Cell Titer-Glo (CTG) method was adopted. Compound was dissolved with DMSO to 10 mM, and then diluted by medium. The upper medium of cells was removed, washed once with DPBS, added 2 mL of trypsin, and placed at 37° C. for a while. After cells were detached from the petri dish, 5 mL fresh medium was added and the suspension cells were centrifuged at 1000 rpm for 5 minutes at room temperature. Resuspend the cells with 5 mL of fresh culture medium, and use Countess™ to count cells. 200 nL compounds were added to a ultra-low attachment 384-well plate, and 40 μL cells were added to each well. After seven days of culture at 37° C., 5% CO2, CTG was added and the signal was recorded using Envision. The Inhibition rate is calculated using the following formula: Inhibition %=(Ave_H-Sample)/(Ave_H-Ave_L)×100%. Ave_H represents the average reading value of DMSO well, Sample represents the average reading value of compound well, and Ave_L represents the average reading value of 10 μM positive control well. The log value of concentration was taken as the X-axis, and the percentage inhibition rate was taken as the Y-axis. The dose-effect curve was fitted with log(inhibitor) vs. response-Variable slope of the analysis software GraphPad Prism 5. The IC50 value or inhibitory rate of each compound on cell proliferation was obtained.

[2] = test system: AsPC1 (human pancreatic cancer cell line, KRAS G12D mutation); test: 3D cell proliferation inhibition (CellTiter-Glo), AsPC1; settings: ASPC1, 168 h, 3D culture, seven days, CTG
Method: as §1

[3] = test system: GP2D (human colon cancer cell line, KRAS G12D mutation); test: 3D cell proliferation inhibition (CellTiter-Glo), GP2D; settings: 168 h, 3D culture, seven days, CTG
Method: as §1, with “The log value of concentration was taken as the X-axis, and the percentage inhibition rate was taken as the Y-axis. The dose-effect curve was fitted with log(inhibitor) vs. response-Variable slope of the analysis software GraphPad Prism 5. The IC50 value or inhibitory rate of each compound on cell proliferation was obtained.” left out

[4] = test system: AGS (human gastric cancer cell line, KRAS G12D mutation); test: 3D cell proliferation inhibition (CellTiter-Glo), AGS; settings: 168 h, 3D culture, 100 nM compound, seven days, CTG
Method: as §1, with “The” for “Compound activity was indicated by AGS (human gastric cancer cell line, KRAS G12D mutation), GP2D (human colon cancer cell line, KRAS G12D mutation), HPAC (human pancreatic cancer cell line, KRAS G12D mutation) and AsPCl (human pancreatic cancer cell line, KRAS G12D mutation) 3D cell proliferation inhibition. The”

In the case of C#Cc1c(F)ccc2cc(O)cc(-c3ncc4c(N5CCNC6(CC6)C5)nc(OCC56CCCN5CC(=C(F)F)C6)nc4c3F)c12 (centres unmarked) [Compound 24], the IC50 [1] is reported as < 70 nM.
C#Cc1c(F)ccc2cc(O)cc(-c3ncc4c(N5C6CCC5CNC6)nc(OC[C@@]56CCCN5C[C@H](F)C6)nc4c3F)c12 [Compound 21] was tested, and the IC50 [2] was < 100 nM.
For C#Cc1c(F)ccc2cc(O)cc(-c3ncc4c(N5CC6CCC(C5)N6)nc(OCC56CCCN5CC(=C(F)F)C6)nc4c3F)c12 (centres unmarked) [Compound 20], the IC50 [1] was < 5 nM.
C#Cc1c(F)ccc2cc(O)cc(-c3ncc4c(N5CCNC6(CC6)C5)nc(OC[C@@]56CCCN5C[C@H](F)C6)nc4c3F)c12 [Compound 22] was tested, and the IC50 [2] was < 150 nM.
With Oc1cc(-c2ncc3c(N4CC5CCC(C4)N5)nc(OCC45CCCN4CC(=C(F)F)C5)nc3c2F)c2c(F)cccc2c1 (centres unmarked) [Compound 4] the IC50 [3] was < 0.5 nM, the IC50 [1] was < 15 nM and the inhibition at 0.1 µM [4] was > 50%.
C#Cc1c(F)ccc2cccc(-c3ncc4c(N5CC6CCC(C5)N6)nc(OCC56CCCN5CC(=C(F)F)C6)nc4c3F)c12 (centres unmarked) [Compound 12] was tested, and the IC50 [1] was < 70 nM and the inhibition at 0.1 µM [4] was > 50%.
In the case of CCc1c(F)ccc2cccc(-c3ncc4c(N5CC6CCC(C5)N6)nc(OCC56CCCN5CC(=C(F)F)C6)nc4c3F)c12 (centres unmarked) [Compound 14], the inhibition at 0.1 µM [4] is reported as > 50%.
With C#Cc1c(F)ccc2cc(OP(=O)(O)O)cc(-c3ncc4c(N5CC6CCC(C5)N6)nc(OCC56CCCN5CC(=C(F)F)C6)nc4c3F)c12 (centres unmarked) [Compound 29] the IC50 [1] was < 10 nM.
For C#Cc1c(F)ccc2cc(OC(C)=O)cc(-c3ncc4c(N5CC6CCC(C5)N6)nc(OCC56CCCN5CC(=C(F)F)C6)nc4c3F)c12 (centres unmarked) [Compound 28], the IC50 [1] was < 70 nM.
In the case of C#Cc1c(F)ccc2cc(O)cc(-c3c(Cl)cc4c(N5CC6CCC(C5)N6)nc(OCC56CCCN5CC(=C(F)F)C6)nc4c3F)c12 (centres unmarked) [Compound 30], the IC50 [1] is reported as < 25 nM.
In the case of C#Cc1c(F)ccc2cc(O)cc(-c3ncc4c(N5C6CCC5CNC6)nc(OCC56CCCN5CC(=C(F)F)C6)nc4c3F)c12 (centres unmarked) [Compound 23], the IC50 [1] is reported as < 50 nM.
In the case of FC(F)=C1CN2CCCC2(COc2nc(N3CC4CCC(C3)N4)c3cnc(-c4cccc5cccc(F)c45)c(F)c3n2)C1 (centres unmarked) [Compound 13], the inhibition at 0.1 µM [4] is reported as > 50%.
C#Cc1cccc2cc(O)cc(-c3ncc4c(N5CC6CCC(C5)N6)nc(OCC56CCCN5CC(=C(F)F)C6)nc4c3F)c12 (centres unmarked) [Compound 10] was tested, and the IC50 [3] was < 0.5 nM, the IC50 [2] was < 5 nM and the IC50 [1] was < 10 nM. For the same compound, the inhibition at 0.1 µM [4] was > 50%.
Oc1cc(-c2ncc3c(N4CCNC5(CC5)C4)nc(OC[C@@]45CCCN4C[C@H](F)C5)nc3c2F)c2c(F)cccc2c1 [Compound 1] was tested, and the inhibition at 0.1 µM [4] was > 50%.
